According to patent US10004738B2, “Combination treatment comprising administration of 2-amino-3,5,5-trifluoro-3,4,5,6-tetrahydropyridines” (H. Lundbeck A/S, priority 2015, dated 2018):
Like-named read-outs stand apart in the source and are kept apart here.

What was measured:
BACE1 enzyme = BACE1 enzyme (Homo sapiens (Human), UniProt P56817); test: BACE1 efficacy assay (FRET-based, commercial BACE1 kit); type: biochemical; conditions: test compound 10 μM, 3 nM enzyme, 250 nM substrate
Method: The efficacy assay was performed as a FRET-based assay using a commercially available BACE1 kit (Life Technologies, P2985). 2 μl test compound at 10 μM (final concentration) and 15 μl BACE1 enzyme from the kit (final concentration 3 nM) were preincubated for 15 minutes at room temperature before addition of 15 μl of substrate from the kit (250 nM final concentration) and incubated for additional 90 minutes at room temperature. The assay plate was subsequently read in a Pherastar (Ex540/Em590). […] The efficacy of the test compounds was evaluated at 10 μM (final concentration) and defined as the percent inhibition of the enzyme activity using the equation % inhibition=100%−normalized enzyme activity in percent.

[1] = Brain and plasma exposure in rats after oral dosing (DMPK analysis); type: in vivo; conditions: male, Sprague Dawley, rat, 3 hours post dose
Method: Young adult Male Sprague Dawley rats of approximately 250 g weight were purchased from Charles River and received 0-30 mg/kg of vehicle (10% HP betaCD+1M MeSO4, pH 2.5) or test compounds (dissolved in vehicle) only by oral gavage (p.o). The compounds are dosed at a volume of 5 ml/kg. Cohorts of 5-10 animals were established for each treatment condition.
At T=180 minutes after initial dosing the animals were stunned and decapitated with a guillotine. Trunk-blood was sampled in EDTA coated tubes after decapitation of the animal. The blood was centrifuged at 2200G at 4° C. for 15 minutes and the plasma was collected and frozen at −80° C. The blood was aliquoted for Aβ ELISA and DMPK analysis. Immediately following sacrifice, the brain was extracted and split into 2 halves. The right hemibrains were snap frozen on dry ice and stored at −80° C. The left half was dissected; with the front forebrain taken for Aβ ELISA and the remainder used for DMPK analysis. These samples were also snap frozen on dry ice and stored at −80° C. until use for analysis.
Compounds 1, 5, 17, 18, and 24 were administered at doses of 10 or 30 mg/kg p.o. and brain and plasma samples were collected at 3 hours post dose and the following exposures and reductions in Aβ40 levels were measured as described above.

[2] = 10 mg/kg p.o., brain, read-out: Exp, brain
[3] = 10 mg/kg p.o., plasma, read-out: Exp, plasma
[4] = 30 mg/kg p.o., brain, read-out: Exp, brain
[5] = 30 mg/kg p.o., plasma, read-out: Exp, plasma

Chain of BACE1 enzyme (P56817 46-501): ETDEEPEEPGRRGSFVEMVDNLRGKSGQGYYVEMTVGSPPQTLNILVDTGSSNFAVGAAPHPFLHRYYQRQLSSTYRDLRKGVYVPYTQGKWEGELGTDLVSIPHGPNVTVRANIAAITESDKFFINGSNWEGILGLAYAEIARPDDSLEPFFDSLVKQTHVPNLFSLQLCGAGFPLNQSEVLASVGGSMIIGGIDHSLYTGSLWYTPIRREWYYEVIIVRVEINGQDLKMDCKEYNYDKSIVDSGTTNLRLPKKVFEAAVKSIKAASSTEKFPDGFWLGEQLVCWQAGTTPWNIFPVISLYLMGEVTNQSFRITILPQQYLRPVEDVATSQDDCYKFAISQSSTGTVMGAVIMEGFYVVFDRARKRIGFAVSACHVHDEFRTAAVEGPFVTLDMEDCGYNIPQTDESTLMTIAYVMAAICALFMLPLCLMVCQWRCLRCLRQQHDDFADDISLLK

| Structure (SMILES) | inhibition at 10 µM (BACE1 enzyme) [%] | concentration at 3 h [1, 2] [ng/g] | concentration at 3 h [1, 3] [ng/g] | concentration at 3 h [1, 4] [ng/g] | concentration at 3 h [1, 5] [ng/g] |
| --- | --- | --- | --- | --- | --- |
| COc1cnc(C(=O)Nc2ccc(F)c([C@@]3(C)N=C(N)[C@@](C)(F)CC3(F)F)c2)cn1 [Compound 5, N-(3-((2R,5S)-6-amino-3,3,5-trifluoro-2,5-dimethyl-2,3,4,5-tetrahydropyridin-2-yl)-4-fluorophenyl)-5-methoxypyrazine-2-carboxamide] | 96 | 174 | 137 | 954 | 632 |
| Cc1cc(C#N)cnc1C(=O)Nc1ccc(F)c([C@@]2(C)N=C(N)[C@@](C)(F)CC2(F)F)c1 [Compound 18, N-(3-((2R,5S)-6-amino-3,3,5-trifluoro-2,5-dimethyl-2,3,4,5-tetrahydropyridin-2-yl)-4-fluorophenyl)-5-cyano-3-methylpicolinamide] | 102 | 412 | 778 | 1610 | 3000 |
| C[C@]1(F)CC(F)(F)[C@@](C)(c2cc(NC(=O)c3nc(CF)cs3)ccc2F)N=C1N [Compound 15, N-(3-((2R,5S)-6-amino-3,3,5-trifluoro-2,5-dimethyl-2,3,4,5-tetrahydropyridin-2-yl)-4-fluorophenyl)-4-(fluoromethyl)thiazole-2-carboxamide] | 101 | – | – | – | – |
| Cn1cc(Br)nc1C(=O)Nc1ccc(F)c([C@@]2(C)N=C(N)[C@@](C)(F)CC2(F)F)c1 [Compound 9, N-(3-((2R,5S)-6-amino-3,3,5-trifluoro-2,5-dimethyl-2,3,4,5-tetrahydropyridin-2-yl)-4-fluorophenyl)-4-bromo-1-methyl-1H-imidazole-2-carboxamide] | 103 | – | – | – | – |
| C[C@]1(F)CC(F)(F)[C@@](C)(c2cc(NC(=O)c3ccc(F)cn3)ccc2F)N=C1N [Compound 1, N-(3-((2R,5S)-6-amino-3,3,5-trifluoro-2,5-dimethyl-2,3,4,5-tetrahydropyridin-2-yl)-4-fluorophenyl)-5-fluoropicolinamide] | 104 | – | – | 2190 | 3540 |
| C[C@]1(F)CC(F)(F)[C@@](C)(c2cc(NC(=O)c3nccs3)ccc2F)N=C1N [Compound 8, N-(3-((2R,5S)-6-amino-3,3,5-trifluoro-2,5-dimethyl-2,3,4,5-tetrahydropyridin-2-yl)-4-fluorophenyl)thiazole-2-carboxamide] | 104 | – | – | – | – |
| Cc1csc(C(=O)Nc2ccc(F)c([C@@]3(C)N=C(N)[C@@](C)(F)CC3(F)F)c2)n1 [Compound 10, N-(3-((2R,5S)-6-amino-3,3,5-trifluoro-2,5-dimethyl-2,3,4,5-tetrahydropyridin-2-yl)-4-fluorophenyl)-4-methylthiazole-2-carboxamide] | 102 | – | – | – | – |
| COc1ccc(C(=O)Nc2ccc(F)c([C@@]3(C)N=C(N)[C@@](C)(F)CC3(F)F)c2)nc1 [Compound 17, N-(3-((2R,5S)-6-amino-3,3,5-trifluoro-2,5-dimethyl-2,3,4,5-tetrahydropyridin-2-yl)-4-fluorophenyl)-5-methoxypicolinamide] | 101 | – | – | 1220 | 828 |
| C[C@@]1(F)CC(F)(F)[C@@](C)(c2cc(NC(=O)c3ccc(F)cn3)ccc2F)N=C1N [Compound 2, N-(3-((2R,5R)-6-amino-3,3,5-trifluoro-2,5-dimethyl-2,3,4,5-tetrahydropyridin-2-yl)-4-fluorophenyl)-5-fluoropicolinamide] | 100 | – | – | – | – |

More lines, now with the values ahead:

| inhibition at 10 µM (BACE1 enzyme) [%] | concentration at 3 h [1, 2] [ng/g] | concentration at 3 h [1, 3] [ng/g] | concentration at 3 h [1, 4] [ng/g] | concentration at 3 h [1, 5] [ng/g] | Structure (SMILES) |
| --- | --- | --- | --- | --- | --- |
| 98 | – | – | – | – | Cc1cn(C)c(C(=O)Nc2ccc(F)c([C@@]3(C)N=C(N)[C@](C)(F)CC3(F)F)c2)n1 [Compound 38, N-(3-((2R,5R)-6-amino-3,3,5-trifluoro-2,5-dimethyl-2,3,4,5-tetrahydropyridin-2-yl)-4-fluorophenyl)-1,4-dimethyl-1H-imidazole-2-carboxamide] |
| 102 | – | – | – | – | C[C@@]1(F)CC(F)(F)[C@@](C)(c2cc(NC(=O)c3nc(CF)cs3)ccc2F)N=C1N [Compound 31, N-(3-((2R,5R)-6-amino-3,3,5-trifluoro-2,5-dimethyl-2,3,4,5-tetrahydropyridin-2-yl)-4-fluorophenyl)-4-(fluoromethyl)thiazole-2-carboxamide] |
| 88 | – | – | – | – | Cc1nnc(C(=O)Nc2ccc(F)c([C@@]3(C)N=C(N)[C@@](C)(F)CC3(F)F)c2)o1 [Compound 20, N-(3-((2R,5S)-6-amino-3,3,5-trifluoro-2,5-dimethyl-2,3,4,5-tetrahydropyridin-2-yl)-4-fluorophenyl)-5-methyl-1,3,4-oxadiazole-2-carboxamide] |
| 103 | – | – | – | – | C[C@]1(F)CC(F)(F)[C@@](C)(c2cc(NC(=O)c3ccc(OC(F)F)cn3)ccc2F)N=C1N [Compound 45, N-(3-((2R,5S)-6-amino-3,3,5-trifluoro-2,5-dimethyl-2,3,4,5-tetrahydropyridin-2-yl)-4-fluorophenyl)-5-(difluoromethoxy)picolinamide] |
| 100 | – | – | – | – | C[C@@]1(F)CC(F)(F)[C@@](C)(c2cc(NC(=O)c3nccs3)ccc2F)N=C1N [Compound 36, N-(3-((2R,5R)-6-amino-3,3,5-trifluoro-2,5-dimethyl-2,3,4,5-tetrahydropyridin-2-yl)-4-fluorophenyl)thiazole-2-carboxamide] |
| 102 | – | – | – | – | Cc1nc(C(=O)Nc2ccc(F)c([C@@]3(C)N=C(N)[C@@](C)(F)CC3(F)F)c2)c(C)o1 [Compound 47, N-(3-((2R,5S)-6-amino-3,3,5-trifluoro-2,5-dimethyl-2,3,4,5-tetrahydropyridin-2-yl)-4 fluorophenyl)-2,5-dimethyloxazole-4-carboxamide] |
| 98 | 134 | 96.2 | 809 | 673 | C[C@@]1(F)CC(F)(F)[C@@](C)(c2cc(NC(=O)c3cnc(C(F)F)cn3)ccc2F)N=C1N [Compound 24, N-(3-((2R,5R)-6-amino-3,3,5-trifluoro-2,5-dimethyl-2,3,4,5-tetrahydropyridin-2-yl)-4-fluorophenyl)-5-(difluoromethyl)pyrazine-2-carboxamide] |
| 102 | – | – | – | – | COc1cnc(C(=O)Nc2ccc(F)c([C@@]3(C)N=C(N)[C@](C)(F)CC3(F)F)c2)nc1 [Compound 26, N-(3-((2R,5R)-6-amino-3,3,5-trifluoro-2,5-dimethyl-2,3,4,5-tetrahydropyridin-2-yl)-4-fluorophenyl)-5-methoxypyrimidine-2-carboxamide] |
| 93 | – | – | – | – | Cc1ccc(C(=O)Nc2ccc(F)c([C@@]3(C)N=C(N)[C@](C)(F)CC3(F)F)c2)o1 [Compound 41, N-(3-((2R,5R)-6-amino-3,3,5-trifluoro-2,5-dimethyl-2,3,4,5-tetrahydropyridin-2-yl)-4-fluorophenyl)-5-methylfuran-2-carboxamide] |
| 74 | – | – | – | – | Cn1ccc(C(=O)Nc2ccc(F)c([C@@]3(C)N=C(N)[C@](C)(F)CC3(F)F)c2)n1 [Compound 39, N-(3-((2R,5R)-6-amino-3,3,5-trifluoro-2,5-dimethyl-2,3,4,5-tetrahydropyridin-2-yl)-4-fluorophenyl)-1-methyl-1H-pyrazole-3-carboxamide] |
| 104 | – | – | – | – | Cn1cc(Br)nc1C(=O)Nc1ccc(F)c([C@@]2(C)N=C(N)[C@](C)(F)CC2(F)F)c1 [Compound 37, N-(3-((2R,5R)-6-amino-3,3,5-trifluoro-2,5-dimethyl-2,3,4,5-tetrahydropyridin-2-yl)-4-fluorophenyl)-4-bromo-1-methyl-1H-imidazole-2-carboxamide] |
| 98 | – | – | – | – | Cc1csc(C(=O)Nc2ccc(F)c([C@@]3(C)N=C(N)[C@](C)(F)CC3(F)F)c2)n1 [Compound 27, N-(3-((2R,5R)-6-amino-3,3,5-trifluoro-2,5-dimethyl-2,3,4,5-tetrahydropyridin-2-yl)-4-fluorophenyl)-4-methylthiazole-2-carboxamide] |
